Source: ChEMBL document CHEMBL3045481, “Insecticide-induced resurgence of the whitebacked planthopper Sogatella furcifera (Horvath) (Hemiptera: Delphacidae) on rice varieties with different levels of resistance” (Crop Prot, 2011)

How the values were obtained:
[1] = system: Oryza sativa; test: Effect on total sugar level in Sogatella furcifera-sensitive Oryza sativa (rice) plant ARC6248 leaf sheath measured per gram of dry weight at 0.025% concentration (reference value: 25.98 mg/g dry wt); format: ADME, organism-based; conditions: in vivo
[2] = system: Oryza sativa; test: Effect on total sugar level in Sogatella furcifera-resistanct Oryza sativa (rice) plant PR116 leaf sheath measured per gram of dry weight at 0.025% concentration (reference value: 30.27 mg/g dry wt); format: ADME, organism-based; conditions: in vivo
[3] = system: Sogatella furcifera; test: Insecticidal activity against Sogatella furcifera on insect-sensitive rice plant ARC6248 assessed as growth index at 0.025% concentration (reference value: 2.38%); format: functional
[4] = system: Sogatella furcifera; test: Insecticidal activity against Sogatella furcifera on insect-resistanct rice plant PR116 assessed as growth index at 0.025% concentration (reference value: 6.02%); format: functional
[5] = system: Sogatella furcifera; test: Insecticidal activity against Sogatella furcifera on insect-resistanct rice plant PR116 assessed as nymphal duration at 0.025% concentration (reference value: 11.75 days); format: functional
[6] = system: Sogatella furcifera; test: Insecticidal activity against Sogatella furcifera on insect-sensitive rice plant ARC6248 assessed as resurgence ratio at 0.025% concentration; format: functional
[7] = system: Sogatella furcifera; test: Insecticidal activity against Sogatella furcifera on insect-resistanct rice plant PR116 assessed as resurgence ratio at 0.025% concentration; format: functional
[8] = system: Oryza sativa; test: Effect on total phenols level in Sogatella furcifera-resistanct Oryza sativa (rice) plant PR116 leaf sheath measured per gram of dry weight at 0.025% concentration (reference value: 5.75 mg/g dry wt); format: ADME, organism-based; conditions: in vivo
[9] = system: Oryza sativa; test: Effect on total amino acids level in Sogatella furcifera-resistanct Oryza sativa (rice) plant PR116 leaf blade measured per gram of dry weight at 0.025% concentration (reference value: 3.91 mg/g […]); format: ADME, organism-based; conditions: in vivo
[10] = system: Oryza sativa; test: Effect on total amino acids level in Sogatella furcifera-sensitive Oryza sativa (rice) plant ARC6248 leaf sheath measured per gram of dry weight at 0.025% concentration (reference value: 2.11 mg/g fresh wt); format: ADME, organism-based; conditions: in vivo
[11] = system: Oryza sativa; test: Effect on total amino acids level in Sogatella furcifera-sensitive Oryza sativa (rice) plant ARC6248 leaf blade measured per gram of dry weight at 0.025% concentration (reference value: 3.54 mg/g […]); format: ADME, organism-based; conditions: in vivo
[12] = system: Oryza sativa; test: Effect on total protein level in Sogatella furcifera-sensitive Oryza sativa (rice) plant ARC6248 leaf blade measured per gram of dry weight at 0.025% concentration (reference value: 17.67 mg/g […]); format: ADME, organism-based; conditions: in vivo
[13] = system: Oryza sativa; test: Effect on total protein level in Sogatella furcifera-resistanct Oryza sativa (rice) plant PR116 leaf blade measured per gram of dry weight at 0.025% concentration (reference value: 21.67 mg/g fresh wt); format: ADME, organism-based; conditions: in vivo
[14] = system: Oryza sativa; test: Effect on reducing sugar level in Sogatella furcifera-sensitive Oryza sativa (rice) plant ARC6248 leaf blade measured per gram of dry weight at 0.025% concentration (reference value: 8.37 mg/g dry wt); format: ADME, organism-based; conditions: in vivo
[15] = system: Oryza sativa; test: Effect on total phenols level in Sogatella furcifera-sensitive Oryza sativa (rice) plant ARC6248 leaf blade measured per gram of dry weight at 0.025% concentration (reference value: 17.08 mg/g dry wt); format: ADME, organism-based; conditions: in vivo
[16] = system: Oryza sativa; test: Effect on total phenols level in Sogatella furcifera-resistanct Oryza sativa (rice) plant PR116 leaf blade measured per gram of dry weight at 0.025% concentration (reference value: 8.08 mg/g dry wt); format: ADME, organism-based; conditions: in vivo
[17] = system: Oryza sativa; test: Effect on reducing sugar level in Sogatella furcifera-resistanct Oryza sativa (rice) plant PR116 leaf blade measured per gram of dry weight at 0.025% concentration (reference value: 9.35 mg/g dry wt); format: ADME, organism-based; conditions: in vivo
[18] = system: Oryza sativa; test: Effect on total sugar level in Sogatella furcifera-sensitive Oryza sativa (rice) plant ARC6248 leaf blade measured per gram of dry weight at 0.025% concentration (reference value: 34.05 mg/g dry wt); format: ADME, organism-based; conditions: in vivo
[19] = system: Oryza sativa; test: Effect on total sugar level in Sogatella furcifera-resistanct Oryza sativa (rice) plant PR116 leaf blade measured per gram of dry weight at 0.025% concentration (reference value: 36.16 mg/g dry wt); format: ADME, organism-based; conditions: in vivo
[20] = system: Oryza sativa; test: Effect on total amino acids level in Sogatella furcifera-resistanct Oryza sativa (rice) plant PR116 leaf sheath measured per gram of dry weight at 0.025% concentration (reference value: 2.58 mg/g […]); format: ADME, organism-based; conditions: in vivo
[21] = system: Oryza sativa; test: Effect on total protein level in Sogatella furcifera-sensitive Oryza sativa (rice) plant ARC6248 leaf sheath measured per gram of dry weight at 0.025% concentration (reference value: 6.11 mg/g […]); format: ADME, organism-based; conditions: in vivo
[22] = system: Oryza sativa; test: Effect on total protein level in Sogatella furcifera-resistanct Oryza sativa (rice) plant PR116 leaf sheath measured per gram of dry weight at 0.025% concentration (reference value: 7.06 mg/g fresh wt); format: ADME, organism-based; conditions: in vivo
[23] = system: Oryza sativa; test: Effect on total phenols level in Sogatella furcifera-sensitive Oryza sativa (rice) plant ARC6248 leaf sheath measured per gram of dry weight at 0.025% concentration (reference value: 12.75 mg/g dry wt); format: ADME, organism-based; conditions: in vivo
[24] = system: Sogatella furcifera; test: Insecticidal activity against Sogatella furcifera on insect-sensitive rice plant ARC6248 assessed as nymphal survival at 0.025% concentration (reference value: 34.17%); format: functional
[25] = system: Sogatella furcifera; test: Insecticidal activity against Sogatella furcifera on insect-resistanct rice plant PR116 assessed as nymphal survival at 0.025% concentration (reference value: 70.28%); format: functional
[26] = system: Sogatella furcifera; test: Insecticidal activity against Sogatella furcifera on insect-sensitive rice plant ARC6248 assessed as nymphal duration at 0.025% concentration (reference value: 14.48 days); format: functional
[27] = system: Oryza sativa; test: Effect on reducing sugar level in Sogatella furcifera-sensitive Oryza sativa (rice) plant ARC6248 leaf sheath measured per gram of dry weight at 0.025% concentration (reference value: 6.41 mg/g dry wt); format: ADME, organism-based; conditions: in vivo
[28] = system: Oryza sativa; test: Effect on reducing sugar level in Sogatella furcifera-resistanct Oryza sativa (rice) plant PR116 leaf sheath measured per gram of dry weight at 0.025% concentration (reference value: 7.50 mg/g dry wt); format: ADME, organism-based; conditions: in vivo

In the case of CC1(C)[C@H](C(=O)O[C@H](C#N)c2cccc(Oc3ccccc3)c2)[C@@H]1C=C(Br)Br [DELTAMETHRIN], the Activity [1] is reported as 35.36 mg, the Activity [2] is reported as 35.62 mg and the “growth inhibition (GI)” value [3] is reported as 2.74%. The “growth inhibition (GI)” value [4] was 6.77%, the Time [5] was 11.63 days and the Ratio [6] was 1.28. It also gave a Ratio [7] of 1.75, an Activity [8] of 5.42 mg and an Activity [9] of 4.62 mg. For the same molecule, the Activity [10] was 2.95 mg, the Activity [11] was 4.21 mg and the Activity [12] was 19.83 mg. For the same molecule, the Activity [13] was 23.89 mg, the Activity [14] was 12.28 mg and the Activity [15] was 17.08 mg. It also gave an Activity [16] of 6.92 mg, an Activity [17] of 14.35 mg and an Activity [18] of 38.84 mg. It also gave an Activity [19] of 44.2 mg, an Activity [20] of 3.73 mg and an Activity [21] of 7.78 mg. It also gave an Activity [22] of 8 mg, an Activity [23] of 12 mg and a Survival [24] of 38.89%. The Survival [25] was 78.05%, the Time [26] was 14.32 days and the Activity [27] was 10.76 mg. It also gave an Activity [28] of 13.8 mg.
